Assays:
HsClpP = HsClpP (Homo sapiens, UniProt Q16740); assay: HsClpP enzyme hydrolysis of short peptide substrate AC-WLA-AMC; conditions: promoting hydrolysis of short peptide substrate by HsClpP, relative to blank control
Procedure: This study evaluated the regulatory activity of the compounds on HsClpP by examining the hydrolysis effects of HsClpP protein on the AC-WLA-AMC substrate . […] The small molecules and the HsClpP protein solution were added to a flat-bottomed black 96-well plate, with three replicate wells for each group. […] DMSO was used as a negative control instead of small molecules. The multiple of readings at different concentrations against the readings of DMSO group was recorded as an index for evaluation of hydrolysis activity. . . . GraphPad Prism was used to plot the obtained multiple values and calculate the EC50 values.

HCT116 = assay: CCK-8 in vitro anti-tumor proliferation assay; format: cell-based; conditions: Homo sapiens, HCT-116; Table 5; HCT116; 72 hours; read-out: IC50
Procedure: Example 3: In vitro anti-tumor proliferation assay of the compounds. The purpose of this experiment was to use CCK-8 to detect the in vitro inhibitory activity of the compounds of the present invention against the proliferation of tumor cells. The main reagents, such as RPMI-1640, DMEM high-glucose culture medium, fetal bovine serum, trypsin, etc., were purchased from Gibco BRL. CCK8 and DMSO were products of Sigma. For in vitro experiment, the test compounds were prepared as 10 mM stock solutions in DMSO and stored at −20° C. in the refrigerator in the dark for later use, then diluted to desired concentration with complete culture medium before use. The human lung cancer cells, colon cancer cells, breast cancer cells, glioblastoma cells, human myelomonocytic leukemia cells, and human Burkitt's lymphoma cells used in this experiment were all purchased from the American ATCC company and preserved in laboratory of the inventors. All the above cell lines were cultured in RPMI-1640 complete medium or DMEM complete medium containing 10% fetal bovine serum, 100 U/mL penicillin, and 100 μg/mL streptomycin under 5% carbon dioxide, 37° C. conditions. […] The previous culture medium was discarded, fresh culture medium was added to resuspend the cells, and then the cells were counted. According to the growth rate of different cells, the cell seeding concentration was determined, generally being 3000-5000 cells/well. After determining the seeding concentration, the cell suspension was diluted to desired concentrations with fresh culture medium, and then added to a 96-well plate with 100 μL per well, and 200 μL of PBS was added to the edge wells to prevent evaporation of the culture medium. On the second day, drug treatment was performed. First, the compounds were diluted into a series of gradients with culture medium, and then the drug solution was added to the 96-well plate, with 3 parallel wells for each gradient. Each plate set a blank control group, and ONC201 was used as the positive control group.

Chain of HsClpP (Q16740 57-277): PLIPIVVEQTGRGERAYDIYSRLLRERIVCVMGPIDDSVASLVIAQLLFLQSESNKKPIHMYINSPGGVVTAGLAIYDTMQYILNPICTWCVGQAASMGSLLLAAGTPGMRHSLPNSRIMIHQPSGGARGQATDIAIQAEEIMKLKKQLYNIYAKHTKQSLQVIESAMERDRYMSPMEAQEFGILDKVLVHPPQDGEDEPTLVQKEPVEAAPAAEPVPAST

SMILES | Regulatory efficacy 1 μM (HsClpP) | Regulatory efficacy 10 μM (HsClpP) | IC50 (HCT116) [nM]
O=c1nc2n(c3c1CN(Cc1ccccc1)CC3)CCN2Cc1ccccc1 [Compound 7, 7-benzyl-3-benzyl-2,3,6,7,8,9-hexahydroimidazo[1,2-a]pyrido[3,4-e]pyrimidin-5(1H)-one] | + + | + + | 500
O=c1nc2n(c3c1CN(Cc1ccccc1)CC3)CCN2Cc1ccc2ccccc2c1 [Compound 8, 7-benzyl-3-(2-naphthylmethyl)-2,3,6,7,8,9-hexahydroimidazo[1,2-a]pyrido[3,4-e]pyrimidin-5(1H)-one] | + + | + + | 300
Cc1cccc(CN2CCn3c2nc(=O)c2c3CCN(Cc3ccccc3)C2)c1 [Compound 11, 7-benzyl-3-(3-methylbenzyl)-2,3,6,7,8,9-hexahydroimidazo[1,2-a]pyrido[3,4-e]pyrimidin-5(1H)-one] | + + | + + | 300
Cc1ccc(CN2CCn3c2nc(=O)c2c3CCN(Cc3ccccc3)C2)cc1 [Compound 12, 7-benzyl-3-(4-methylbenzyl)-2,3,6,7,8,9-hexahydroimidazo[1,2-a]pyrido[3,4-e]pyrimidin-5(1H)-one] | + + | + + | 200
COc1ccccc1CN1CCn2c1nc(=O)c1c2CCN(Cc2ccccc2)C1 [Compound 13, 7-benzyl-3-(2-methoxybenzyl)-2,3,6,7,8,9-hexahydroimidazo[1,2-a]pyrido[3,4-e]pyrimidin-5(1H)-one] | + + | + + | 1300
COc1ccc(CN2CCn3c2nc(=O)c2c3CCN(Cc3ccccc3)C2)cc1 [Compound 14, 7-benzyl-3-(4-methoxybenzyl)-2,3,6,7,8,9-hexahydroimidazo[1,2-a]pyrido[3,4-e]pyrimidin-5(1H)-one] | + + | + + | 1200
O=c1nc2n(c3c1CN(Cc1ccccc1)CC3)CCN2Cc1ccc(Br)cc1 [Compound 17, 7-benzyl-3-(4-bromobenzyl)-2,3,6,7,8,9-hexahydroimidazo[1,2-a]pyrido[3,4-e]pyrimidin-5(1H)-one] | + + | + + | 500
O=c1nc2n(c3c1CN(Cc1ccccc1)CC3)CCN2Cc1ccc(Br)c(F)c1 [Compound 22, 7-benzyl-3-(4-bromo-3-fluorobenzyl)-2,3,6,7,8,9-hexahydroimidazo[1,2-a]pyrido[3,4-e]pyrimidin-5 (1H)-one] | + + | + + | 80
O=c1nc2n(c3c1CN(Cc1ccccc1)CC3)CCN2Cc1ccc(Cl)c(Cl)c1 [Compound 26, 7-benzyl-3-(3,4-dichlorobenzyl)-2,3,6,7,8,9-hexahydroimidazo[1,2-a]pyrido[3,4-e]pyrimidin-5(1H)-one] | + + | + + | 30
CCN1CCc2c(c(=O)nc3n2CCN3Cc2ccccc2C)C1 [Compound 28, 7-ethyl-3-(2-methylbenzyl)-2,3,6,7,8,9-hexahydroimidazo[1,2-a]pyrido[3,4-e]pyrimidin-5(1H)-one] | + (+ indicating that the increased efficacy is less than 50% of the blank control group) | + (+ indicating that the increased efficacy is less than 50% of the blank control group) | > 10000

Source: US20240287071A1, “CLASS OF IMIDAZOLIDINOPYRIMIDONE COMPOUNDS AND USE THEREOF IN TREATMENT OF HSCLPP-MEDIATED DISEASES” (SICHUAN UNIVERSITY, priority 2021, published 2024)
